From US20160295864A1 (priority 2014, published 2016)

Experiments:
[1] = test system: Pyricularia oryzae (Magnaporthe grisea); assay: microbe, parasite or virus in culture; format: cell-based; settings: read-out: Magnaporthe grisea inhibition
[2] = test system: Botrytis cinerea AARF-033; assay: Antifungal activity test against rice Botrytis cinerea (96 well microplate, conidia in glucose broth); format: cell-based; settings: AARF033, 96 h, conidia 1×10^4 conidia/ml, stationary culturing for 4 days at 25° C.
Excerpt: Test specimens (compound (4a-2) and compound (4b-2)), (compound (4a-3) and compound (4b-3)), and reference compounds i.e. iprodione and Captan, were each independently dissolved in dimethyl sulfoxide (DMSO) and adjusted to a concentration of 10,000 ppm. The test solution was dispensed 2 μ/ml in a flat-bottomed 96 well microplate, and then, conidia of rice Botrytis cinerea (Botrytis cinerea AARF-033) cultured on glucose agar medium, suspended in glucose broth and adjusted to 1×10^4 conidia/ml, were dispensed 198 μ/mL, followed by stirring by a micromixer. At that time, the concentrations of the test specimen and the reference compound, were 100 ppm. Thereafter, the antimicrobial activities were evaluated by stationary culturing for 4 days at 25° C.

SMILES	inhibition at 100 ppm [1] [%]	inhibition at 100 ppm [2] [%]
CCCCNC(=O)n1c(NC(=O)OC)nc2ccccc21 [Benomyl, benomyl]	≥ 95	
O=C1C2CC=CCC2C(=O)N1SC(Cl)(Cl)Cl (stereo not shown) [Captan]		≥ 95
CO/N=C(/C1=NOCCO1)c1ccccc1Oc1ncnc(Oc2ccccc2Cl)c1F [Fluoxastrobin, fluoxastrobin]	≥ 95	
CC(C)NC(=O)N1CC(=O)N(c2cc(Cl)cc(Cl)c2)C1=O [Iprodione, iprodione]		≥ 95
